In PMC4972714 (Bioorganic & medicinal chemistry, 2016):

Tests used:
[1] = system: HIV-1 RRE IIB RNA; assay: Dot blot assay, binding to RRE IIB RNA; conditions: dot blot Kd relative to BPBA3
[2] = system: HIV-1 NL4-3 in U87-CD4/CXCR4 cells; assay: Viral replication assay, p24 read-out; format: cell-based; conditions: 10 µM, infection over several days, NL4-3 in U87-CD4/CXCR4 cells (Fig. 1A)
[3] = biological target: HIV-1 RRE IIB RNA; conditions: native Rev protein with RRE; ref [26], [58]; cited from earlier work

Row | Molecule | HIV-1 replication screening, p24 expression [2] | other results
1 | FBPAYFBPA*NKSY [LBPBA3A] | – | loss in binding affinity towards RRE IIB versus BPBA3 [1]: 2 fold
2 | Elvitegravir | completely abolished p24 expression | –
3 | Nc1ccn([C@@H]2CS[C@H](CO)O2)c(=O)n1 [3TC, 2′,3′-dideoxy-3′-thiacytidine] | completely abolished p24 expression | –
4 | Rev protein: native HIV-1 Rev protein that binds RRE | – | dissociation constant with RRE [3]: low nanomolar range
5 | Cc1cn([C@H]2C[C@H](N=[N+]=[N-])[C@@H](CO)O2)c(=O)[nH]c1=O [AZT, azidothymidine] | completely abolished p24 expression | –
6 | Raltegravir | completely abolished p24 expression | –
7 | FBPAYFBPAFBPAYFBPA*NKSY [LBPBA3B] | – | loss in binding affinity towards RRE IIB versus BPBA3 [1]: 3 fold
